The test system of this assay is human granulocytes, fMLF-stimulated F-actin, FITC-phalloidin flow. The experiment in a line: inhibition of fMLF-induced F-actin formation, mechanism study for Cdc42 probe extension project, cell-based, primary human granulocytes, FITC-phalloidin flow cytometry (AID 652107). The following applies: at 10 µM; hits give high values. A general note: In flow cytometry, cells or beads pass a laser one at a time.

Results on one molecule are retold here after PubChem BioAssay AID652107 (NMMLSC, 2013).

What is called inhibition is the percentage by which the read-out fell short of the control.

Regarding `COc1ccc(C2CC(c3ccccc3)=NN2c2ccc(S(N)(=O)=O)cc2)cc1` (stereo unspecified), the inhibition is 10%.
